Test results: PubChem BioAssay (NCI)
Where “and” joins values, the source holds several entries; their conditions need not be identical. Identical values can stand only once.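 Assay format: 96-well plates, 48-hour exposure. Definition used: TGI = concentration required for complete inhibition of growth.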 Where a SMILES comes first, the peptide text is derived from it. [ ]: non-standard residue; d: D form. The star is where a group is joined. ξ: configuration not given here. ξPhe(4-NO2) = NC(Cc1ccc([N+](=O)[O-])cc1)C(=O)O; Boc = CC(C)(C)OC(=O)*

Assays:
Assay in all cases: NCI tumour cell line growth inhibition, 48 h
ACHN renal = tested on: ACHN renal
BT-549 breast = tested on: BT-549 breast
HOP-62 NSCLC = tested on: HOP-62 NSCLC
IGROV1 ovarian = tested on: IGROV1 ovarian
KM12 colon = tested on: KM12 colon
LOX IMVI melanoma = tested on: LOX IMVI melanoma
MOLT-4 leukemia = tested on: MOLT-4 leukemia
NCI-H226 lung = tested on: NCI-H226 lung
NCI-H23 lung = tested on: NCI-H23 lung
SK-MEL-5 melanoma = tested on: SK-MEL-5 melanoma
SNB-19 CNS = tested on: SNB-19 CNS
TK-10 renal = tested on: TK-10 renal

Row | Compound | TGI (ACHN renal) | TGI (BT-549 breast) | TGI (HOP-62 NSCLC) | TGI (IGROV1 ovarian) | TGI (KM12 colon) | TGI (LOX IMVI melanoma) | TGI (MOLT-4 leukemia) | TGI (NCI-H226 lung) | TGI (NCI-H23 lung) | TGI (SK-MEL-5 melanoma) | TGI (SNB-19 CNS) | TGI (TK-10 renal)
1 | CCNC(=O)CNC(=O)C(Cc1ccc([N+](=O)[O-])cc1)NC(=O)OC(C)(C)C (centres undefined) (Boc-[ξPhe(4-NO2)]-Gly-NHEt) | > 100 µM | > 100 µM | > 100 µM | > 100 µM | > 100 µM | > 100 µM | > 100 µM | > 100 µM | > 100 µM | > 100 µM | > 100 µM | > 100 µM
2 | C=C(C)C1CC2=C(O1)C(=O)c1cccc(O)c1C2=O (centres undefined) | 3.23 µM | 1.63 µM | 2.94 µM | 0.617 µM | 3.27 µM | > 22.8 µM | 0.422 µM | 3.46 µM | 0.935 µM | 0.304 µM | 3.11 µM | 5.37 µM
3 | COC(=O)C1SC[C@H]2C(=O)N(c3ccccc3)C(=O)N12 (some centres undefined) | > 100 µM | > 100 µM | > 100 µM | > 100 µM | > 100 µM | > 100 µM | > 100 µM | > 100 µM | > 100 µM | > 100 µM | > 100 µM | > 100 µM
4 | C#CCOC(=O)[C@@H](C)c1ccc2cc(OC)ccc2c1 | > 100 µM | > 100 µM | > 100 µM | > 100 µM | > 100 µM | > 100 µM | > 100 µM | > 100 µM | > 100 µM | > 100 µM | > 100 µM | > 100 µM
5 | O=c1oc2ccccc2n1CCCn1c(=O)oc2ccccc21 | > 100 µM | > 100 µM | > 100 µM | > 100 µM | > 100 µM | > 100 µM | > 100 µM | > 100 µM | > 100 µM | > 100 µM | > 100 µM | > 100 µM
6 | O=C(N[C@@H](Cc1ccccc1)B(O)O)[C@H](Cc1cccc2ccccc12)NC(=O)N1CCOCC1 | 24.6 µM | 0.00335 µM | 0.0316 µM and 0.0488 µM | 0.07 µM and 0.0754 µM | 0.0041 µM and 0.0149 µM | 0.00343 µM | 0.00366 µM and 0.0107 µM | 0.00164 µM | 0.00899 µM and 0.0101 µM | 0.00392 µM and 0.014 µM | 0.671 µM | 0.154 µM and 0.413 µM
7 | CC(=O)OCCCCn1cnc2c(Cl)nc(Nc3ccccc3)nc21 | > 100 µM | > 100 µM | > 100 µM | > 100 µM | > 100 µM | > 100 µM | > 100 µM | > 100 µM | > 100 µM | > 100 µM |  | > 100 µM
8 | CS(=O)(=O)CCC(N)P(=O)(O)O (centres undefined) | > 100 µM | > 100 µM | > 100 µM | > 100 µM | > 100 µM | > 100 µM | > 100 µM | > 100 µM | > 100 µM | > 100 µM | > 100 µM | > 100 µM
9 | COc1ccc(Br)c(C=Nc2cccc3cc(OC)c(OC)cc23)c1 | > 73.8 µM | > 46 µM | > 100 µM | > 93.9 µM | > 95.7 µM | 19.2 µM | > 62.4 µM | > 100 µM | > 100 µM | > 94.9 µM | > 100 µM | 71.6 µM
10 | ClCCc1ccccc1CC1=NCCc2ccccc21 | > 100 µM | 97.9 µM | > 100 µM | > 100 µM | > 100 µM | > 100 µM | > 100 µM | > 100 µM | 74.5 µM | 47.9 µM | > 100 µM | > 100 µM
11 | CC(C)C[C@H](NC(=O)CCc1cccc2ccccc12)B(O)O | > 100 µM | 2.15 µM | 14.3 µM | 23.8 µM | 5.4 µM | 1.77 µM | 3.86 µM | 0.392 µM | 7.81 µM | 1.85 µM | > 100 µM | 12.4 µM
12 | C=C(C1=CC(=O)C(C)(C)O1)[C@@H]1CC=C([C@@H]2CC[C@H]3[C@@]2(C)CC[C@H]2C(C)(C)C(=O)[C@H](OC(=O)CC(C)(O)CC(=O)O)C[C@]32C)[C@H](O)O1 (some centres undefined) | 25.4 µM | 13.4 µM | 35 µM | 26.3 µM | 29.7 µM | 25.9 µM | 30.8 µM | 31.3 µM | 27.5 µM | 24.4 µM | > 75 µM | > 75 µM
13 | Nc1ncnc2c1cnn2COCC(O)CO (centres undefined) | > 100 µM | > 100 µM | > 100 µM | > 100 µM | > 100 µM | > 100 µM | > 100 µM | > 100 µM | > 100 µM | > 100 µM | > 100 µM | > 100 µM
14 | Cn1c(O)c(C=Nc2ccc(Cl)cc2Cl)c(=O)n(C)c1=O | > 100 µM | > 100 µM | > 100 µM | > 100 µM | > 100 µM | > 100 µM | > 100 µM | > 100 µM | > 100 µM | > 100 µM | > 100 µM | > 100 µM
15 | Nc1nc(Cl)c(C=O)c(NCC2(CO)CCC2)n1 | > 100 µM | > 100 µM | 65.1 µM | 25.9 µM | > 100 µM | 26.9 µM | 65.5 µM | 34 µM | > 100 µM | 31.4 µM | 34.4 µM | > 100 µM
16 | Brc1ccc(C2CC3(c4ccccc4)ON=C(c4ccccc4)N3c3ccccc3S2)cc1 (centres undefined) | > 100 µM | > 100 µM | > 100 µM | > 100 µM | > 100 µM | > 100 µM | > 100 µM | > 100 µM | > 100 µM | > 100 µM | > 100 µM | > 100 µM
17 | O=C1c2cc([N+](=O)[O-])sc2C(=O)c2cc([N+](=O)[O-])sc21 | 10.1 µM | 3.95 µM | 15.3 µM | 3.07 µM | 14.8 µM | 3.68 µM | > 22.7 µM | 26.3 µM | 15.5 µM | 7.21 µM | 8.9 µM | 13 µM
18 | COc1ncc(C#CC(=O)c2ccccc2)c(OC)n1 | 3.7 µM | 5.33 µM | 42 µM | 7.49 µM | 22.9 µM | 3 µM | 2.38 µM | 5.46 µM | 10.9 µM | 6.68 µM | 31.6 µM | 
